Measured values reported in publication PMC12203311, “Design, synthesis, in silico and in vitro evaluation of pyrrole–indole hybrids as dual tubulin and aromatase inhibitors with potent anticancer activities” (RSC Advances, 2025).

Key:
[1] = test system: T47D breast cancer cell line; test: Cytotoxicity MTT assay, T47D; format: cell-based, human; settings: for IC50: MTT, 48 hours; for activity against T47D in two-dose screen: 10 µM and 50 µM
Description: (§1) T47D (ATCC HTB-133) was purchased from Biomedia (Thailand) Co., LTD. L929 (ATCC CCL-1) was received as a gift from Prof. Tanapat Palaga, Department of Microbiology, Faculty of Science, Chulalongkorn University, Bangkok, Thailand. The cells were cultured in Dulbecco's Modified Eagle's Medium (DMEM; Gibco) supplemented with 10% fetal bovine serum (FBS; HyClone), 100 U mL^−1 penicillin and 100 µg mL^−1 streptomycin (Gibco) at 37 °C with 5% CO2.
(§2) The antiproliferative activity was determined by MTT assay. Briefly, the cells were plated into a 96-well microplate at the density of 10 000 cells per well. The cells were allowed to grow overnight before treated with the solutions of compounds in culture medium at the designated concentrations for 48 hours. The medium was then replaced with MTT solution (0.5 mg mL^−1 MTT in culture medium) and incubated for 3 hours. A 100 µL of DMSO was used to dissolve the produced formazan. Absorbance at 570 nm was then measured using a microplate reader (Varioskan™ LUX multimode microplate reader, Thermo Scientific™). Percent viability was calculated relative to the vehicle control (DMSO).

Human CYP19 (aromatase) = biological target: T1, Human CYP19 (aromatase) (Homo sapiens, UniProt P11511); test: Aromatase inhibition assay (DBF fluorometric substrate); format: biochemical; settings: active defined as IC50 < 12.5 µM
T1 construct: purchased GENTEST, Woburn, MA 456260; host or cells: baculovirus/insect cells
T1 sequence (P11511 1-503): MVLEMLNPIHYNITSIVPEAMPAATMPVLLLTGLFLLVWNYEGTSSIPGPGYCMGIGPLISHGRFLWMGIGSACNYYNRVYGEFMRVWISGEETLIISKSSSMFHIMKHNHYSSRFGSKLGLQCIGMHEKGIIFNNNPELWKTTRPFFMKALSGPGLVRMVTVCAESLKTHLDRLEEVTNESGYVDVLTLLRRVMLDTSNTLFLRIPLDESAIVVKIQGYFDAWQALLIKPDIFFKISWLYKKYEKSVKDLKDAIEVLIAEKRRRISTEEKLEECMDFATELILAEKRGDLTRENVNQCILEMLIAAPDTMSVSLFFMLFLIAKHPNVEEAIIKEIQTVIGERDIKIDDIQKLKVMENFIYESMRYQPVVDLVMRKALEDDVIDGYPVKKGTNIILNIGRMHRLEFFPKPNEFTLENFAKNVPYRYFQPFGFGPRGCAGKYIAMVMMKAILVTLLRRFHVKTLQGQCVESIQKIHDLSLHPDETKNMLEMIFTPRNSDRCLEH
Description: Aromatase enzyme was purchased from GENTEST, Woburn, MA01801, USA (Supersom human CYP19+oxidoreductase, baculovirus/insect cell-expressed; Product No. 456260). The aromatase inhibitory activity was performed using Human CYP19 enzymes and DBF as a fluorometric substrate as described by Stresser, et al.[41] with minor modifications. The mixture, containing 100 µL of cofactor/serial dilution buffer was pre-incubated in 37 °C for 10 min. […] After incubation at 37 °C for 30 min, the reaction was stopped by addition of 50 µL of 2.2 M NaOH. Fluorescence signal was monitored using an excitation wavelength of 490 nm and emission wavelength of 530 nm.

[2] = test system: NCI60 human cell line panel; test: NCI60 one-dose screen; format: cell-based; settings: 10 µM single dose
Description: The one-dose experimental protocol followed the method described in this literature.[28] First, all compounds were tested at a single concentration (10 µM) across the entire NCI60 panel. The results of this assay indicate the growth relative to no-drug control and the number of cells at time zero. This method allows for the detection of growth inhibition (values between 0 to 100) and lethality (value below 0).

[3] = test system: L929 normal mouse fibroblast cell line; test: Cytotoxicity MTT assay, L929; format: cell-based; settings: IC50 (L929)/IC50 (T47D)
Description: as §1, §2

[4] = Cytotoxicity MTT assay, L929; format: cell-based, mouse; settings: mouse, L929 fibroblast cells; MTT, 48 hours
Description: as §1, §2

Compound | IC50 (Human CYP19 (aromatase)) [µM] | aromatase inhibition (Human CYP19 (aromatase)) | activity against T47D in two-dose screen [1] | other results
N.N.[Cl][Pt][Cl] [Cisplatin, reference compound] | – | – | – | IC50 [1]: > 100 µM
O=C(N/N=C/c1ccco1)c1[nH]c2ccc(Br)cc2c1-c1ccccc1 [Derivative 1a, reference compound] | 11.3 ± 1.7 | – | – | –
O=C(N/N=C/c1cccs1)c1[nH]c2ccc(Br)cc2c1-c1ccccc1 [Derivative 2a, reference compound] | > 12.5 | lacked aromatase inhibition | – | –
CCOC(=O)c1cc[nH]c1/C=N/NC(=O)c1[nH]c2ccc(Br)cc2c1-c1ccccc1 [Derivative 3k, Ethyl (E)-2-((2-(5-bromo-3-phenyl-1H-indole-2-carbonyl)hydrazono)methyl)-1H-pyrrole-3-carboxylate] | 0.018 ± 0.002 | – | – | IC50 ([1]; Homo sapiens, T47D): 10.6 ± 1.1 µM; NCI mean (mean growth percentage over the panel) [2]: 49%; Selectivity index (SI) [3]: 1.42; IC50 at 48 h [4]: 15 ± 8.9 µM
O=C(O)c1ccc(/C=N/NC(=O)c2[nH]c3ccc(Br)cc3c2-c2ccccc2)[nH]1 [Derivative 3l, (E)-5-((2-(5-Bromo-3-phenyl-1H-indole-2-carbonyl)hydrazono)methyl)-1H-pyrrole-2-carboxylic acid] | > 12.5 | inactive against aromatase | weak activity | growth inhibition in the single dose experiment [2]: mild effects
O=C(O)c1c[nH]c(/C=N/NC(=O)c2[nH]c3ccc(Br)cc3c2-c2ccccc2)c1 [Derivative 3m, (E)-5-((2-(5-Bromo-3-phenyl-1H-indole-2-carbonyl)hydrazono)methyl)-1H-pyrrole-3-carboxylic acid] | > 12.5 | inactive against aromatase | weak activity | growth inhibition in the single dose experiment [2]: mild effects
O=C(N/N=C/c1cc(C(=O)N2CCOCC2)c[nH]1)c1[nH]c2ccc(Br)cc2c1-c1ccccc1 [Derivative 3o, (E)-5-Bromo-N′-((4-(morpholine-4-carbonyl)-1H-pyrrol-2-yl)methylene)-3-phenyl-1H-indole-2-carbohydrazide] | 1.6 ± 0.4 | – | – | IC50 ([1]; Homo sapiens, T47D): 14.9 ± 1 µM; NCI mean (mean growth percentage over the panel) [2]: 45%; IC50 at 48 h [4]: 43.2 ± 9.9 µM
O=C(O)c1cc(/C=N/NC(=O)c2[nH]c3ccc(Br)cc3c2-c2ccccc2)c[nH]1 [Derivative 3w, (E)-4-((2-(5-Bromo-3-phenyl-1H-indole-2-carbonyl)hydrazono)methyl)-1H-pyrrole-2-carboxylic acid] | > 12.5 | inactive against aromatase | weak activity | –
O=C(N/N=C/c1c[nH]c(C(=O)N2CCOCC2)c1)c1[nH]c2ccc(Br)cc2c1-c1ccccc1 [Derivative 3x, (E)-5-Bromo-N′-((5-(morpholine-4-carbonyl)-1H-pyrrol-3-yl)methylene)-3-phenyl-1H-indole-2-carbohydrazide] | 3.7 ± 0.6 | – | weak activity | –
